# Measurements from US20210038602A1, “COMBINATION TREATMENT OF ACUTE MYELOID LEUKEMIA” (Boehringer Ingelheim International GmbH, priority 2018, published 2021).
# System: AML cell line MV-4-11B
# Assay: IncuCyte live cell imaging assay: cell growth (confluence) and apoptosis (Caspase-3/7 green fluorescence) over time
# Format: cell-based
# Settings: MV-4-11B cells, single compound treatment, vs DMSO control
# Method: The analysis is done by the Essen BioScience IncuCyte™ FLR live cell imaging system. It enables observation and quantification of cell behavior over time by automatically gathering and analyzing images around the clock. This live-cell, non-perturbating imaging approach yields kinetic data, all generated within the controlled environment of a standard cell incubator.
# MV-4-11B is the AML cell line MV-4-11 from ATCC (CRL-9591) which has achieved a mutation in TP53 (c.742C>T, p.R248W, heterozygous for TP53). MV-4-11B cells were grown in T-75 flasks using RPMI1640 medium supplemented with 10% fetal calf serum and 50 μM mercaptoethanol. Cultures were incubated at 37° C. and 5% CO2 in a humidified atmosphere.
# For the IncuCyte live cell imaging assays, cells were plated in 96 well plates, Poly-D-Lysine coated, and were incubated with the respective compounds (BET inhibitor 1-12, volasertib), either alone or in combination. For the detection of apoptotic cells, the Essen BioSciences CellPlayer™ 96 well Kinetic Caspase-3/7 Reagent was added.
# To determine cell proliferation, “confluence” (area covered with cells in the wells) was used as readout, to determine the amount of apoptosis (dead cells), the intensity of green fluorescence was used as readout.
smiles,measurement,setting,value
"CC[C@@H]1C(=O)N(C)c2cnc(Nc3ccc(C(=O)N[C@H]4CC[C@H](N5CCN(CC6CC6)CC5)CC4)cc3OC)nc2N1C(C)C [volasertib, N-[trans-4-[4-(cyclopropylmethyl)-1-piperazinyl]cyclohexyl]-4-[[(7R)-7-ethyl-5,6,7,8-tetrahydro-5-methyl-8-(1-methylethyl)-6-oxo-2-pteridinyl]amino]-3-methoxy-benzamide]",Cell growth (confluence),over time (FIGS. 1-12 a),reduced in comparison to DMSO control treated cells
same,Apoptosis (Caspase-3/7 green fluorescence),over time (FIGS. 1-12 b),increased in comparison to DMSO control treated cells
